In publication doi:10.1101/2022.05.31.494145v5 (biorxiv, 2024):

Experiments:
CHIKV nsP1 = target: T1, CHIKV nsP1 (Chikungunya virus strain S27-African prototype, UniProt Q8JUX6); assay: tryptophan fluorescence quenching; assay type: binding
T1 sequence (Q8JUX6 1-535): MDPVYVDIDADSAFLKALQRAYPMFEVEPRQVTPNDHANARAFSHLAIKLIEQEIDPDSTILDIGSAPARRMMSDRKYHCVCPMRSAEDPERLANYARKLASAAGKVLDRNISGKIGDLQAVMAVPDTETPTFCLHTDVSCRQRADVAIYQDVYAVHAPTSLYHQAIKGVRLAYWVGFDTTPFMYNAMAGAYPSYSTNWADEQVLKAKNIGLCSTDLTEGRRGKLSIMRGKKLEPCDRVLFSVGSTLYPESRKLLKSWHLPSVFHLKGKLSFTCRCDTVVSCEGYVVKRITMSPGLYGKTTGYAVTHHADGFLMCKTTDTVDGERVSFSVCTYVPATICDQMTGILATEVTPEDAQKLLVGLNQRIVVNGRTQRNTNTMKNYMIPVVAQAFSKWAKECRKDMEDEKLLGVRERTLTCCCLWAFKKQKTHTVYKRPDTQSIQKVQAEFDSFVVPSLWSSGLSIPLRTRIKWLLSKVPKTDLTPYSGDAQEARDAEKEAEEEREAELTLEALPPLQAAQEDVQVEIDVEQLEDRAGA

DENV 3 NS5 MTase = target: T2, DENV 3 NS5 MTase (dengue virus type 3, UniProt A9LID6); assay: tryptophan fluorescence quenching; assay type: binding
T2 sequence (A9LID6 2491-2755 limits assumed): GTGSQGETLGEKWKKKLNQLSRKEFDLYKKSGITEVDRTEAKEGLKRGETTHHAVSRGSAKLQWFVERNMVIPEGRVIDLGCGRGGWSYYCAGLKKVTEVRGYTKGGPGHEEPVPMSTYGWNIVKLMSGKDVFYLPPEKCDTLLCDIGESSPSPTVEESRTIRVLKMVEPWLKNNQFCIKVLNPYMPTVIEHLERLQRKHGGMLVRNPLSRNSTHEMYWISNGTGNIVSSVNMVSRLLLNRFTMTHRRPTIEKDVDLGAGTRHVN

SMILES | Kd (CHIKV nsP1) | Kd (DENV 3 NS5 MTase)
O=c1c(O)c(-c2ccc(O)cc2)oc2c(O)c(O)cc(O)c12 [HC, herbacetin] | 6.52 ± 0.55 µM | 13.3 ± 2.69 µM
O=C(/C=C/c1ccc(O)c(O)c1)OCCc1ccccc1 [CAPE, caffeic acid phenethyl ester] | 30.6 ± 5.33 µM | 37.9 ± 6.32 µM
C[S+](CC[C@H](N)C(=O)O)C[C@H]1O[C@@H](n2cnc3c(N)ncnc32)[C@H](O)[C@@H]1O (some centres unmarked) [SAM] | 10.9 ± 5.15 µM | 6.67 ± 2.57 µM
Nc1nc2c(ncn2[C@@H]2O[C@H](COP(=O)(O)OP(=O)(O)OP(=O)(O)O)[C@@H](O)[C@H]2O)c(=O)[nH]1 [GTP] | 169 ± 21.3 µM | 3.03 ± 1 µM
